Columns and labels:
Experiment in all cases: microbe, parasite or virus in culture
[1] = tested on: Pseudotyped HCV GT1a particles (HCVpp); format: cell-based, HCV GT1a H77 strain; conditions: Hepatitis C virus, 72 h, read-out: HCVpp GT-1a (EC50, μM)
[2] = tested on: Pseudotyped HCV GT1b particles (HCVpp); format: cell-based, HCV GT1b Con1 strain; conditions: Hepatitis C virus, 72 h, read-out: HCVpp GT-1b (EC50, μM)
[3] = tested on: pseudotyped VSV G particles (VSVpp); format: cell-based; conditions: Vesicular stomatitis virus, 72 h, read-out: VSVpp (EC50, μM)

SMILES	EC50 [1] [µM]	EC50 [2] [µM]	EC50 [3] [µM]
Nc1nc(Nc2cc(Cl)cc(Cl)c2)n[nH]1 [Compound I-41, 3-Amino-5-(3,5-Dichloroanilino)-S-triazole]	0.138	1.61	–
N#Cc1c(F)cc(Nc2nc(N)n[nH]2)cc1C(F)(F)F [Compound I-68, 4-(5-Amino-2H-[1,2,4]triazol-3-ylamino)-2-fluoro-6-trifluoromethyl-benzonitrile]	–	0.161	43.3
Nc1nc(Nc2ccc(Br)c(S(F)(F)(F)(F)F)c2)n[nH]1 [Compound I-81, N*3*-(4-Bromo-3-pentafluorosulfur-phenyl)-1H-[1,2,4]triazole-3,5-diamine]	–	0.527	34
CN(C)C(=O)c1ccc(Nc2n[nH]c(N)n2)cc1Cl [Compound I-78, 4-(5-Amino-1H-[1,2,4]triazol-3-ylamino)-2-chloro-N,N-dimethyl-benzamide]	32.1	–	100
Cn1nc(N)nc1Nc1cccc(S(F)(F)(F)(F)F)c1 [Compound I-71, 1-Methyl-N*5*-(3-pentafluorosulfur-phenyl)-1H-[1,2,4]triazole-3,5-diamine]	100	–	100
Cn1nc(N)nc1Nc1cc(F)cc(S(F)(F)(F)(F)F)c1 [Compound I-74, N*5*-(3-Fluoro-5-pentafluorosulfur-phenyl)-1-methyl-1H-[1,2,4]triazole-3,5-diamine]	34.3	–	100
N#Cc1c(F)cc(Nc2n[nH]c(N)n2)cc1S(F)(F)(F)(F)F [Compound I-86, 4-(5-Amino-1H-[1,2,4]triazol-3-ylamino)-2-fluoro-6-pentafluorosulfur-benzonitrile]	–	0.104	> 10
N#Cc1ccc(Nc2n[nH]c(N)n2)cc1S(F)(F)(F)(F)F [Compound I-85, 4-(5-Amino-1H-[1,2,4]triazol-3-ylamino)-2-pentafluorosulfur-benzonitrile]	–	0.287	> 10
Cc1ccc(Nc2n[nH]c(N)n2)cc1Cl [Compound I-76, N^3-(3-Chloro-4-methyl-phenyl)-1H-[1,2,4]triazole-3,5-diamine]	0.791	–	100
CN(c1cc(Cl)c(Cl)c(Cl)c1)c1n[nH]c(N)n1 [Compound I-27, N*3*-Methyl-N*3*-(3,4,5-trichloro-phenyl)-1H-[1,2,4]triazole-3,5-diamine]	21.1	–	94.4
Nc1n[nH]c(Nc2cc(F)c(Br)c(F)c2)n1 [Compound I-46, N^5-(4-Bromo-3,5-difluoro-phenyl)-1H-[1,2,4]triazole-3,5-diamine]	–	1.18	100
CS(=O)(=O)c1cccc(NC(=O)c2c(Cl)cc(Nc3n[nH]c(N)n3)cc2Cl)c1 [Compound I-66, 4-(5-Amino-1H-[1,2,4]triazol-3-ylamino)-2,6-dichloro-N-(3-methanesulfonyl-phenyl)-benzamide]	–	4.99	100
Nc1nc(Nc2cc(Cl)c(S(=O)(=O)N3CCOCC3)c(Cl)c2)n[nH]1 [Compound I-44, N3-(3,5-dichloro-4-(morpholinosulfonyl)phenyl)-1H-1,2,4-triazole-3,5-diamine]	–	0.545	100
N#Cc1ccc(Nc2n[nH]c(N)n2)cc1 [Compound I-47, 4-(5-Amino-1H-[1,2,4]triazol-3-ylamino)-benzonitrile]	19.6	–	100
Nc1nc(Nc2ccc(S(F)(F)(F)(F)F)cc2)n[nH]1 [Compound I-75, N*3*-(4-pentafluorosulfur-phenyl)-1H-[1,2,4]triazole-3,5-diamine]	14.3	–	100
N#CC1(c2cccc(Nc3n[nH]c(N)n3)c2)CC1 [Compound I-59, 1-[3-(5-Amino-1H-[1,2,4]triazol-3-ylamino)-phenyl]-cyclopropanecarbonitrile]	1.46	–	100
CNC(=O)Nc1ccc(Nc2n[nH]c(N)n2)cc1Cl [Compound I-62, 1-[4-(5-Amino-1H-[1,2,4]triazol-3-ylamino)-2-chloro-phenyl]-3-methyl-urea]	–	100	100
CS(=O)(=O)Nc1cccc(Nc2n[nH]c(N)n2)c1 [Compound I-33, N-[3-(5-Amino-1H-[1,2,4]triazol-3-ylamino)-phenyl]-methanesulfonamide]	100	–	100
Nc1nc(Nc2cccc(C(F)(F)F)c2F)n[nH]1 [Compound I-53, N^3-(2-Fluoro-3-trifluoromethyl-phenyl)-1H-[1,2,4]triazole-3,5-diamine]	100	–	100
Nc1nc(Nc2cccc(C(=O)O)c2)n[nH]1 [Compound I-31, 3-(5-Amino-1H-[1,2,4]triazol-3-ylamino)-benzoic acid]	100	–	100
Nc1nc(Nc2cccc(S(F)(F)(F)(F)F)c2)n(C2CCCCC2)n1 [Compound I-72, Cyclohexyl-N*5*-(3-pentafluorosulfur-phenyl)-1H-[1,2,4]triazole-3,5-diamine]	36.1	–	68.3

SMILES	EC50 [1] [µM]	EC50 [2] [µM]	EC50 [3] [µM]
N#CCc1c(Cl)cc(Nc2n[nH]c(N)n2)cc1C(F)(F)F [Compound I-84, 2-(4-(5-amino-1H-1,2,4-triazol-3-ylamino)-2-chloro-6-(trifluoromethyl)phenyl)acetonitrile]	–	0.628	42.1
Nc1nc(Nc2cc(Br)cc(S(F)(F)(F)(F)F)c2)n[nH]1 [Compound I-82, N*3*-(3-Bromo-5-pentafluorosulfur-phenyl)-1H-[1,2,4]triazole-3,5-diamine]	–	0.918	57.5
Nc1nc(Nc2ccc(Br)c(Cl)c2)n[nH]1 [Compound I-40, N*3*-(4-Bromo-3-chloro-phenyl)-1H-[1,2,4]triazole-3,5-diamine]	–	3.29	45.7
COC(=O)c1c(Cl)cc(Nc2n[nH]c(N)n2)cc1Cl [Compound I-63, 4-(5-Amino-1H-[1,2,4]triazol-3-ylamino)-2,6-dichloro-benzoic acid methyl ester]	–	1.74	100
C=Cc1c(Cl)cc(Nc2n[nH]c(N)n2)cc1Cl [Compound I-67, N^3-(3,5-Dichloro-4-vinyl-phenyl)-1H-[1,2,4]triazole-3,5-diamine]	–	0.685	100
Nc1n[nH]c(Nc2cc(F)c(Br)c(C(F)(F)F)c2)n1 [Compound I-45, N^5-(4-bromo-3-fluoro-5-trifluoromethylphenyl)-1H-[1,2,4]-triazole-3,5-diamine]	–	0.095	82.5
Nc1nc(Nc2cc(Cl)c(C(=O)N3CCCC3)c(Cl)c2)n[nH]1 [Compound I-65, [4-(5-Amino-1H-[1,2,4]triazol-3-ylamino)-2,6-dichloro-N-phenyl]-pyrrolidin-1-yl-methanone]	–	3.67	100
N#Cc1c(NN)cc(Nc2n[nH]c(N)n2)cc1S(F)(F)(F)(F)F [Compound I-87, 4-(5-Amino-1H-[1,2,4]triazol-3-ylamino)-2-hydrazino-6-pentafluorosulfur-benzonitrile]	–	1.65	> 10
Nc1nc(Nc2cc(Cl)c(Cc3nnn[nH]3)c(C(F)(F)F)c2)n[nH]1 [Compound I-90, N3-(4-((1H-tetrazol-5-yl)methyl)-3-chloro-5-(trifluoromethyl)phenyl)-1H-1,2,4-triazole-3,5-diamine]	24.4	–	100
Nc1nc(Nc2cc(F)c(Br)c(Cl)c2)n[nH]1 [Compound I-5, N^3-(4-Bromo-3-chloro-5-fluoro-phenyl)-1H-[1,2,4]triazole-3,5-diamine]	–	0.536	45.5
N#Cc1c(F)cc(Nc2nc(N)n[nH]2)cc1F [Compound I-69, 4-(5-Amino-2H-[1,2,4]triazol-3-ylamino)-2-difluoro-benzonitrile]	–	0.561	100
Nc1nc(Nc2cc(F)cc(Cl)c2)n[nH]1 [Compound I-61, N^3-(3-Chloro-5-fluoro-phenyl)-1H-[1,2,4]triazole-3,5-diamine]	–	0.331	> 10
Nc1nc(Nc2cccc(CC(F)(F)F)c2)n[nH]1 [Compound I-55, N^3-[3-(2,2,2-Trifluoro-ethyl)-phenyl]-1H-[1,2,4]triazole-3,5-diamine]	10.3	–	100
Nc1nc(Nc2cc(Cl)c(C(=O)Nc3ccccc3)c(Cl)c2)n[nH]1 [Compound I-64, 4-(5-Amino-1H-[1,2,4]triazol-3-ylamino)-2,6-dichloro-N-phenyl-benzamide]	–	4.09	8.6
CN(c1cc(Cl)cc(Cl)c1)c1n[nH]c(N)n1 [Compound I-28, N*3*-(3,5-Dichloro-phenyl)-N*3*-methyl-1H-[1,2,4]triazole-3,5-diamine]	82.8	–	100
Nc1nc(Nc2cccc(C(=O)c3ccccc3)c2)n[nH]1 [Compound I-58, [3-(5-Amino-1H-[1,2,4]triazol-3-ylamino)-phenyl]-phenyl-methanone]	4.08	–	–
Nc1nc(Nc2cccc(Cl)c2Cl)n[nH]1 [Compound I-49, N^3-(2,3-Dichloro-phenyl)-1H-[1,2,4]triazole-3,5-diamine]	100	–	100
N#CCN(c1cc(Cl)cc(Cl)c1)c1n[nH]c(N)n1 [Compound I-30, [(5-Amino-1H-[1,2,4]triazol-3-yl)-(3,5-dichloro-phenyl)-amino]-acetonitrile]	14.5	–	100
Nc1nc(N(Cc2ccccc2)c2cc(Cl)cc(Cl)c2)n[nH]1 [Compound I-29, N*3*-Benzyl-N*3*-(3,5-dichloro-phenyl)-1H-[1,2,4]triazole-3,5-diamine]	6.49	–	7.5
N#Cc1ccc(Nc2n[nH]c(N)n2)cc1S(=O)(=O)C(F)(F)F [Compound I-34, 4-(5-Amino-1H-[1,2,4]triazol-3-ylamino)-2-trifluoromethanesulfonyl-benzonitrile]	0.2	–	> 1
